Test results taken from DBAASP.
Values after ≈ are worked out from the molar mass of the structure shown. Blank lines part the entries; values can stand above or below the compound they belong to.

Legend:
Experiment in all cases: ≥ marks a high value that may be exact or a test limit, other limits are often not marked, values filed in µg/mL are converted to µM
[1] = test system: Staphylococcus aureus ATCC 25923
[2] = test system: Escherichia coli UB1005
[3] = test system: Enterococcus faecalis ATCC 29212
[4] = test system: Staphylococcus epidermidis
[5] = test system: Salmonella enterica serovar Typhimurium
[6] = test system: Pseudomonas aeruginosa H103
[7] = test system: Candida albicans
[8] = test system: Escherichia coli ATCC 25726
[9] = test system: Pseudomonas aeruginosa Ps4
[10] = test system: Escherichia coli ATCC 25922
[11] = test system: Pseudomonas aeruginosa PAO1
[12] = test system: Pseudomonas aeruginosa
[13] = test system: Staphylococcus aureus
[14] = test system: Acinetobacter baumannii
[15] = test system: Klebsiella pneumoniae
[16] = test system: Escherichia coli
[17] = test system: Enterococcus faecalis

MIC [1]: 0.7 µM (≈ 1.4 µg/mL) | MIC [2]: 1.5 µM (≈ 2.99 µg/mL) | MIC [3]: 1.5 µM (≈ 2.99 µg/mL) | MIC [4]: 0.7 µM (≈ 1.4 µg/mL) | MIC [5]: 1.5 µM (≈ 2.99 µg/mL) | MIC [6]: 6 µM (≈ 12 µg/mL) | MIC [7]: 3 µM (≈ 5.99 µg/mL)
SMILES: CC[C@H](C)[C@H](NC(=O)[C@@H](N)Cc1ccccc1)C(=O)N[C@@H](CCCCN)C(=O)N[C@@H](Cc1c[nH]c2ccccc12)C(=O)N[C@@H](CCCCN)C(=O)N[C@@H](Cc1ccccc1)C(=O)N[C@@H](CCCN=C(N)N)C(=O)N[C@@H](Cc1c[nH]c2ccccc12)C(=O)N[C@@H](Cc1c[nH]c2ccccc12)C(=O)N[C@@H](CCCCN)C(=O)N[C@@H](Cc1c[nH]c2ccccc12)C(=O)N[C@@H](CCCN=C(N)N)C(=O)N[C@@H](CCCCN)C(=O)O [FIKWKFRWWKWRK]

MIC [1]: 5 µM (≈ 13.6 µg/mL) | MIC [8]: 20 µM (≈ 54.4 µg/mL)
SMILES: CC[C@H](C)[C@H](NC(=O)CNC(=O)CNC(=O)[C@H](CCCCN)NC(=O)[C@H](Cc1ccccc1)NC(=O)[C@H](Cc1ccccc1)NC(=O)[C@H](CCCCN)NC(=O)[C@H](CCCCN)NC(=O)[C@H](CC(C)C)NC(=O)[C@@H](NC(=O)[C@H](CC(=O)O)NC(=O)[C@H](CCCCN)NC(=O)[C@@H](NC(=O)[C@@H](NC(=O)[C@@H]1CCCN1C(=O)[C@@H]1CCCN1C(=O)[C@@H](NC(=O)[C@H](CCCCN)NC(=O)[C@@H](N)Cc1ccccc1)[C@@H](C)CC)[C@@H](C)CC)C(C)C)[C@@H](C)O)C(=O)N[C@@H](C)C(=O)NCC(=O)N[C@H](C(=O)N[C@@H](CCSC)C(=O)NCC(=O)N[C@@H](CCC(N)=O)C(=O)O)C(C)C [FKIPPIVKDTLKKFFKGGIAGVMGQ]

MIC [1]: 3.11 µM (≈ 7.99 µg/mL) | MIC [8]: 24.3 µM (≈ 62.5 µg/mL)
SMILES: CC[C@H](C)[C@@H]1NC(=O)[C@H](C)NC(=O)[C@@H](NC(=O)[C@H](Cc2ccccc2)NC(=O)[C@@H](NC(=O)[C@@H](NC(=O)[C@@H]2CCCN2C(=O)[C@@H](NC(=O)[C@@H](NC(=O)[C@H](CCCCN)NC(=O)[C@H](C)NC(=O)[C@H](C)NC(=O)[C@@H](NC(=O)[C@H](CCCN=C(N)N)NC(=O)[C@H](CC(C)C)NC(=O)[C@@H](NC(=O)[C@H](C)NC(=O)[C@@H]2CCCN2C(=O)[C@H](CC(C)C)NC(=O)[C@@H](N)Cc2ccccc2)C(C)C)C(C)C)[C@@H](C)CC)C(C)C)[C@@H](C)O)C(C)C)CSSC[C@@H](C(=O)O)NC(=O)[C@H](CCCCN)NC(=O)[C@H](CCCCN)NC(=O)[C@H](CO)NC1=O [FLPAVLRVAAKIVPTVFCAISKKC]

MIC [9]: ≥ 179 µM
SMILES: CC[C@H](C)[C@H](NC(=O)[C@H](CC(N)=O)NC(=O)[C@H](CCCN=C(N)N)NC(=O)[C@H](CCC(N)=O)NC(=O)[C@H](Cc1c[nH]c2ccccc12)NC(=O)[C@@H](N)Cc1ccccc1)C(=O)N[C@@H](Cc1ccccc1)C(=O)N[C@@H](CCCCN)C(=O)N[C@H](C(=O)N[C@@H](CCCN=C(N)N)C(N)=O)C(C)C [FWQRNIFKVR]

MIC [9]: ≥ 176 µM
SMILES: CC[C@H](C)[C@H](NC(=O)[C@H](CC(N)=O)NC(=O)[C@H](CCCN=C(N)N)NC(=O)[C@H](CCC(N)=O)NC(=O)[C@H](Cc1c[nH]c2ccccc12)NC(=O)[C@@H](N)Cc1ccccc1)C(=O)N[C@@H](CCCN=C(N)N)C(=O)N[C@@H](Cc1ccccc1)C(=O)N[C@H](C(=O)N[C@@H](CCCN=C(N)N)C(N)=O)C(C)C [FWQRNIRFVR]

MIC [10]: 83.9 µM (≈ 125 µg/mL) | MIC [9]: ≥ 83.9 µM
SMILES: CC[C@H](C)[C@H](NC(=O)[C@H](CC(N)=O)NC(=O)[C@H](CCCN=C(N)N)NC(=O)[C@H](CCC(N)=O)NC(=O)[C@H](Cc1c[nH]c2ccccc12)NC(=O)[C@@H](N)Cc1ccccc1)C(=O)N[C@@H](CCCN=C(N)N)C(=O)N[C@@H](CCCCN)C(=O)N[C@@H](Cc1c[nH]c2ccccc12)C(=O)N[C@@H](CCCN=C(N)N)C(N)=O [FWQRNIRKWR]

MIC [9]: ≥ 165 µM
SMILES: CC[C@H](C)[C@H](NC(=O)[C@H](CC(N)=O)NC(=O)[C@H](CCCN=C(N)N)NC(=O)[C@H](CCC(N)=O)NC(=O)[C@H](Cc1c[nH]c2ccccc12)NC(=O)[C@@H](N)Cc1ccccc1)C(=O)N[C@@H](CCCN=C(N)N)C(=O)N[C@@H](Cc1c[nH]c2ccccc12)C(=O)N[C@@H](CCCN=C(N)N)C(=O)N[C@@H](CCCN=C(N)N)C(N)=O [FWQRNIRWRR]

MIC [9]: ≥ 187 µM
SMILES: CC[C@H](C)[C@H](NC(=O)[C@H](CC(N)=O)NC(=O)[C@H](CCCN=C(N)N)NC(=O)[C@H](CCC(N)=O)NC(=O)[C@H](Cc1c[nH]c2ccccc12)NC(=O)[C@@H](N)Cc1ccccc1)C(=O)N[C@@H](CO)C(=O)N[C@@H](CCCCN)C(=O)N[C@H](C(=O)N[C@@H](CCCN=C(N)N)C(N)=O)C(C)C [FWQRNISKVR]

MIC [9]: ≥ 44.1 µM
SMILES: CC[C@H](C)[C@H](NC(=O)[C@H](CCCN=C(N)N)NC(=O)[C@H](Cc1c[nH]c2ccccc12)NC(=O)[C@@H](NC(=O)[C@H](CCCN=C(N)N)NC(=O)[C@H](Cc1c[nH]c2ccccc12)NC(=O)[C@@H](N)Cc1ccccc1)[C@@H](C)CC)C(=O)N[C@@H](Cc1c[nH]c2ccccc12)C(=O)N[C@@H](CCCN=C(N)N)C(N)=O [FWRIWRIWR]

MIC [9]: ≥ 94.9 µM
SMILES: CC[C@H](C)[C@H](NC(=O)[C@H](CCCN=C(N)N)NC(=O)[C@@H](NC(=O)[C@H](CC(N)=O)NC(=O)[C@H](CCCN=C(N)N)NC(=O)[C@H](Cc1c[nH]c2ccccc12)NC(=O)[C@@H](N)Cc1ccccc1)[C@@H](C)CC)C(=O)N[C@@H](CCCN=C(N)N)C(=O)N[C@@H](CCCN=C(N)N)C(N)=O [FWRNIRIRR]

MIC [9]: ≥ 124 µM
SMILES: NC(=O)[C@H](CCCN=C(N)N)NC(=O)[C@H](CCCN=C(N)N)NC(=O)[C@H](Cc1c[nH]c2ccccc12)NC(=O)[C@H](CCCN=C(N)N)NC(=O)[C@H](Cc1c[nH]c2ccccc12)NC(=O)[C@@H](N)Cc1ccccc1 [FWRWRR]

MIC [1]: 9.18 µM (≈ 31 µg/mL) | MIC [8]: 9.18 µM (≈ 31 µg/mL)
SMILES: CC[C@H](C)[C@H](NC(=O)CNC(=O)[C@H](Cc1ccccc1)NC(=O)[C@H](CCSC)NC(=O)[C@@H](NC(=O)[C@H](CC(N)=O)NC(=O)[C@H](CCCCN)NC(=O)[C@H](Cc1ccccc1)NC(=O)[C@H](C)NC(=O)CNC(=O)[C@H](CCCCN)NC(=O)[C@H](Cc1ccccc1)NC(=O)CN)C(C)C)C(=O)N[C@@H](C)C(=O)N[C@@H](CCCCN)C(=O)N[C@@H](CO)C(=O)N[C@@H](C)C(=O)NCC(=O)N[C@@H](CCCCN)C(=O)N[C@@H](CO)C(=O)N[C@@H](C)C(=O)N[C@@H](CC(C)C)C(=O)N[C@@H](CC(N)=O)C(=O)N[C@@H](C)C(=O)N[C@@H](CC(C)C)C(=O)N[C@@H](C)C(=O)N[C@H]1CSSC[C@@H](C(=O)O)NC(=O)[C@H](CO)NC(=O)[C@H](CCCCN)NC(=O)[C@H](CC(=O)O)NC(=O)[C@H]([C@@H](C)CC)NC(=O)[C@H](CCCCN)NC1=O [GFKGAFKNVMFGIAKSAGKSALNALACKIDKSC]

MIC [1]: 63.6 µM (≈ 125 µg/mL) | MIC [8]: 31.8 µM (≈ 62.4 µg/mL)
SMILES: CC(C)C[C@@H]1NC(=O)CNC(=O)[C@H](CO)NC(=O)[C@H](CC(C)C)NC(=O)[C@H](C)NC(=O)[C@@H](NC(=O)[C@H](C)NC(=O)[C@@H](NC(=O)[C@H](CCCCN)NC(=O)[C@H](CCCCN)NC(=O)CNC(=O)[C@H](C)NC(=O)CNC(=O)[C@H](Cc2ccccc2)NC(=O)[C@H](CC(C)C)NC(=O)[C@H](CO)NC(=O)CNC(=O)[C@H](CC(C)C)NC(=O)[C@H](CC(C)C)NC(=O)CN)C(C)C)CSSC[C@@H](C(=O)O)NC1=O [GLLGSLFGAGKKVACALSGLC]

MIC [1]: 3.69 µM (≈ 6 µg/mL) | MIC [11]: 7.38 µM (≈ 12 µg/mL) | MIC [2]: 0.983 µM (≈ 1.6 µg/mL) | MIC [4]: 0.492 µM (≈ 0.8 µg/mL) | MIC [5]: 1.84 µM (≈ 3 µg/mL) | MIC [6]: 3.69 µM (≈ 6 µg/mL) | MIC [7]: 7.38 µM (≈ 12 µg/mL)
SMILES: CC[C@H](C)[C@H](NC(=O)[C@H](CCCN=C(N)N)NC(=O)[C@H](Cc1ccccc1)NC(=O)[C@H](CCCN=C(N)N)NC(=O)[C@@H](N)CCCCN)C(=O)N[C@@H](CCCN=C(N)N)C(=O)N[C@H](C(=O)N[C@@H](CCCN=C(N)N)C(=O)N[C@H](C(=O)N[C@H](C(=O)N[C@@H](CCCN=C(N)N)C(=O)N[C@@H](CCCCN)C(N)=O)[C@@H](C)CC)C(C)C)C(C)C [KRFRIRVRVIRK]

MIC [12]: 4.9 µM (≈ 12.5 µg/mL) | MIC [13]: 19.6 µM (≈ 49.9 µg/mL) | MIC [14]: 1.2 µM (≈ 3.06 µg/mL) | MIC [15]: 1.2 µM (≈ 3.06 µg/mL) | MIC [4]: 2.5 µM (≈ 6.37 µg/mL) | MIC [16]: 2.5 µM (≈ 6.37 µg/mL) | MIC [17]: 1.2 µM (≈ 3.06 µg/mL)
SMILES: CC[C@H](C)[C@H](NC(=O)CNC(=O)[C@H](CCCN=C(N)N)NC(=O)[C@H](Cc1ccc(O)cc1)NC(=O)[C@H](CC(C)C)NC(=O)[C@H](Cc1cnc[nH]1)NC(=O)CNC(=O)[C@H](Cc1ccccc1)NC(=O)[C@@H](N)Cc1c[nH]c2ccccc12)C(=O)N[C@H](C(=O)N[C@@H](CCCCN)C(=O)N[C@H](C(=O)N[C@H](C(=O)N[C@@H](CCCCN)C(=O)N[C@@H](Cc1cnc[nH]1)C(=O)N[C@H](C(=O)N[C@@H](Cc1cnc[nH]1)C(=O)NCC(=O)N[C@@H](CC(C)C)C(=O)N[C@@H](CC(C)C)C(=O)N[C@@H](CCCCN)C(=O)NCC(=O)O)C(C)C)C(C)C)C(C)C)[C@@H](C)O [WFGHLYRGITKVVKHVHGLLKG]
